# Values of other authors in patent publication US12691071B2 (SHANGHAI YONSUN BIOTECHNOLOGY CO., LTD., priority 2021, dated 2026).
smiles,measurement,setting,value
"COC[C@@H](NC(C)=O)C(=O)NCc1ccccc1 [Lacosamide, (2R)-2-acetamido-N-benzyl-3-methoxypropanamide]",solubility in acetonitrile or ethanol,acetonitrile or ethanol,slightly soluble
same,solubility in methanol or acetone,methanol or acetone,easily soluble
